Laboratory results taken from ChEMBL document CHEMBL3400016, “Isolation, synthesis and anti-hepatitis B virus evaluation of p-hydroxyacetophenone derivatives from Artemisia capillaris” (Bioorg Med Chem Lett, 2015).

Key:
[1] = Cytotoxicity against human HepG 2.2.15 cells by MTT assay; assay type: cell-based, HepG2 2.2.15
[2] = tested on: Hepatitis B virus; assay: Antiviral activity against hepatitis B viral in human HepG2.2.15 cells assessed as surface antigen HBsAg secretion after 72 hrs by ELISA; assay type: functional, organism-based; conditions: HepG2 2.2.15, 72 h
[3] = Selectivity index, ratio of CC50 for human HepG2.2.15 cells to IC50 for decrease in hepatitis B viral surface antigen HBsAg secretion in human HepG2(2.2.15) cells; assay type: functional
[4] = tested on: Hepatitis B virus; assay: Antiviral activity against hepatitis B viral in human HepG2.2.15 cells assessed as decrease in viral DNA replication treated for 7 days by real time PCR analysis; assay type: functional, organism-based; conditions: HepG2 2.2.15, 168 h
[5] = tested on: Hepatitis B virus; assay: Antiviral activity against hepatitis B viral in human HepG2.2.15 cells assessed as […] antigen HBeAg secretion after 72 hrs by ELISA; assay type: functional, organism-based; conditions: HepG2 2.2.15, 72 h
[6] = Selectivity index, ratio of CC50 for human HepG2.2.15 cells to IC50 for decrease in hepatitis B viral DNA replication in human HepG2(2.2.15) cells; assay type: functional
[7] = Selectivity index, ratio of CC50 for human HepG2.2.15 cells to IC50 for decrease in hepatitis B viral […] antigen HBeAg secretion in human HepG2(2.2.15) cells; assay type: functional

Row | Compound | CC50 [1] [mM] | IC50 [2] [mM] | Selectivity Index [3] | IC50 [4] [mM] | IC50 [5] [mM] | Selectivity Index [6] | Selectivity Index [7]
1 | CC(=O)c1ccc(OC(=O)c2cccs2)cc1 | > 3.71 | 3.53 | >1 | > 0.927 | > 3.71 |  | 
2 | CC(=O)c1ccc(OC(=O)/C=C/c2ccccc2)cc1 | > 2.87 | 2.4 | >1.2 | > 0.719 | > 2.87 |  | 
3 | COc1cc(/C=C/C(=O)OC[C@H]2O[C@@H](Oc3ccc(C(C)=O)cc3)[C@H](O)[C@@H](O)[C@@H]2O)cc(OC)c1OC | 0.925 | 0.526 | 1.8 | 0.0058 | > 1.48 | 160.3 | 
4 | COc1cc(O[C@@H]2O[C@H](CO)[C@@H](O)[C@H](O)[C@H]2O)cc(O)c1C(C)=O | > 2.37 | > 2.37 |  | 0.092 | > 2.37 | >25.7 | 
5 | CC(=O)c1ccc(O[C@@H]2O[C@H](CO[C@@H]3OC[C@@H](O)[C@H](O)[C@H]3O)[C@@H](O)[C@H](O)[C@H]2O)cc1 | > 2.6 | > 2.6 |  | 0.0385 | > 2.6 | >67.5 | 
6 | CC(=O)c1ccc(O[C@@H]2O[C@H](COC(=O)/C=C/c3ccc(O)c(O)c3)[C@@H](O)[C@H](O)[C@H]2O)cc1 | 1.58 | 0.291 | 5.4 | 0.008 | 1.28 | >197.9 | 1.2
7 | COc1cccc(/C=C/C(=O)Oc2ccc(C(C)=O)cc2)c1 | > 2.78 | 1.26 | >2.2 | > 0.696 | > 2.78 |  | 
8 | COc1ccc(/C=C/C(=O)Oc2ccc(C(C)=O)cc2)cc1 | > 3.28 | > 3.28 |  | > 0.82 | > 3.28 |  | 
9 | COc1ccc(/C=C/C(=O)Oc2ccc(C(C)=O)cc2)cc1OC | > 2.62 | 1.04 | >2.5 | 0.1 | > 2.62 | >26 | 
10 | CC(=O)c1ccc(OC(=O)/C=C/c2ccc3c(c2)OCO3)cc1 | > 3.04 | 1.89 | >1.6 | > 0.759 | > 3.04 |  | 
11 | COc1cc(/C=C/C(=O)Oc2ccc(C(C)=O)cc2)cc(OC)c1OC | > 2.42 | 0.286 | >8.5 | 0.115 | > 2.42 | >21.1 | 
12 | CC(=O)c1ccc(OC(=O)/C=C/c2cccc(F)c2)cc1 | > 3.11 | 1.52 | >2 | > 0.777 | 2.21 |  | >1.4
13 | CC(=O)c1ccc(OC(=O)/C=C/c2ccc(F)cc2)cc1 | > 3.31 | 1.51 | >2.2 | > 0.829 | 1.52 |  | >2.2
14 | CC(=O)c1ccc(OC(=O)/C=C/c2ccc(F)c(F)c2)cc1 | > 2.6 | 0.61 | >4.3 | > 0.649 | 1.71 |  | >1.5
15 | CC(=O)c1ccc(OC(=O)c2ccccc2)cc1 | > 3.35 | 2.16 | >1.5 | 0.837 | > 3.35 |  | 
16 | COc1cc(C(=O)Oc2ccc(C(C)=O)cc2)cc(OC)c1OC | 1.21 | 0.648 | 1.9 | 0.0888 | > 2.58 | 13.6 | 
17 | CC(=O)c1ccc(OC(=O)c2cccnc2)cc1 | 3.01 | 0.546 | 5.5 | 0.154 | > 3.3 | 19.5 | 

Row | Compound | CC50 [1] [mM] | IC50 [2] [mM] | Selectivity Index [3] | IC50 [4] [mM] | IC50 [5] [mM] | Selectivity Index [6] | Selectivity Index [7]
18 | CC(=O)c1ccc(OC(=O)c2ccco2)cc1 | > 4.05 | 1.83 | >2.2 | > 1.01 | > 4.05 |  | 
19 | CC(=O)c1ccc(O[C@@H]2O[C@H](COC(=O)/C=C/c3ccccc3)[C@@H](O)[C@H](O)[C@H]2O)cc1 | > 1.74 | > 1.74 |  | 0.0673 | > 1.74 | >25.9 | 
20 | COc1cccc(/C=C/C(=O)OC[C@H]2O[C@@H](Oc3ccc(C(C)=O)cc3)[C@H](O)[C@@H](O)[C@@H]2O)c1 | > 1.52 | 0.499 | >3 | 0.0168 | > 1.52 | >90.5 | 
21 | COc1ccc(/C=C/C(=O)OC[C@H]2O[C@@H](Oc3ccc(C(C)=O)cc3)[C@H](O)[C@@H](O)[C@@H]2O)cc1 | 1.54 | 0.782 | 2 | 0.0185 | > 2.08 | 83.2 | 
22 | COc1ccc(/C=C/C(=O)OC[C@H]2O[C@@H](Oc3ccc(C(C)=O)cc3)[C@H](O)[C@@H](O)[C@@H]2O)cc1OC | > 1.45 | 0.696 | >2.1 | 0.0088 | > 1.45 | >165 | 
23 | CC(=O)c1ccc(O[C@@H]2O[C@H](COC(=O)/C=C/c3ccc4c(c3)OCO4)[C@@H](O)[C@H](O)[C@H]2O)cc1 | > 1.47 | 0.698 | >2.1 | 0.0744 | > 1.47 | >19.8 | 
24 | CC(=O)c1ccc(O[C@@H]2O[C@H](COC(=O)/C=C/c3cccc(F)c3)[C@@H](O)[C@H](O)[C@H]2O)cc1 | 0.828 | 0.434 | 1.9 | 0.0228 | > 1.45 | 36.5 | 
25 | CC(=O)c1ccc(O[C@@H]2O[C@H](COC(=O)/C=C/c3ccc(F)cc3)[C@@H](O)[C@H](O)[C@H]2O)cc1 | 0.917 | 0.613 | 1.5 | 0.0648 | > 1.52 | >23.4 | 
26 | CC(=O)c1ccc(O[C@@H]2O[C@H](COC(=O)/C=C/c3ccc(F)c(F)c3)[C@@H](O)[C@H](O)[C@H]2O)cc1 | 0.874 | 0.515 | 1.7 | 0.0225 | > 1.77 | 38.9 | 
27 | CC(=O)c1ccc(O[C@@H]2O[C@H](COC(=O)c3ccccc3)[C@@H](O)[C@H](O)[C@H]2O)cc1 | 1.05 | 0.678 | 1.5 | 0.0937 | > 1.68 | 11.2 | 
28 | COc1cc(C(=O)OC[C@H]2O[C@@H](Oc3ccc(C(C)=O)cc3)[C@H](O)[C@@H](O)[C@@H]2O)cc(OC)c1OC | 0.89 | 1.35 |  | 0.0207 | > 1.49 | 42.9 | 
29 | CC(=O)c1ccc(O[C@@H]2O[C@H](COC(=O)c3cccnc3)[C@@H](O)[C@H](O)[C@H]2O)cc1 | > 1.65 | 1.43 | >1.2 | 0.103 | > 1.65 | >16 | 
30 | CC(=O)c1ccc(O[C@@H]2O[C@H](COC(=O)c3ccco3)[C@@H](O)[C@H](O)[C@H]2O)cc1 | 1.17 | 0.571 | 2.1 | 0.101 | > 1.88 | 11.7 | 
31 | CC(=O)c1ccc(O[C@@H]2O[C@H](COC(=O)c3cccs3)[C@@H](O)[C@H](O)[C@H]2O)cc1 | 1.57 | 0.301 | 5.2 | 0.0314 | > 1.71 | 50.1 | 
32 | CC(=O)c1ccc(O)cc1 [4-HYDROXYACETOPHENONE] | 2.39 | 0.786 | 3 | 0.306 | 1.85 | 7.8 | 1.3
33 | CC(=O)c1ccc(O[C@@H]2O[C@H](CO)[C@@H](O)[C@H](O)[C@H]2O)cc1 [PICEIN] | > 3.95 | > 3.95 |  | 0.228 | > 3.95 | >17.3 | 
34 | C[C@H](Cn1cnc2c(N)ncnc21)OCP(=O)(O)O [TENOFOVIR ANHYDROUS] | > 1.74 | > 1.74 |  | 0.0029 | > 1.74 | >600.8 | 
